Laboratory results: patent publication US20250353820A1, “ANTIVIRAL PYRAZOLOPYRIDINONE COMPOUNDS” (Novartis AG, priority 2019, published 2025)

The compounds below were run against human HSV DNA polymerase UL30 (Human herpesvirus 1 (strain 17) (HHV-1) (Human herpes simplex virus 1), UniProt P04293) (assay: biochemical). Conditions: 625 pM HSV polymerase, 20 minutes at room temperature; read-out: HSV-polymerase Biochemical IC50.
Compound `Cn1nc(C(=O)NCc2ccc(C#N)c(F)c2)c2c1C(=O)N(CC1(S(C)(=O)=O)CC1)CC2` [Example 23, N-(4-Cyano-3-fluorobenzyl)-1-methyl-6-((1-(methylsulfonyl)cyclopropyl)methyl)-7-oxo-4,5,6,7-tetrahydro-1H-pyrazolo[3,4-c]pyridine-3-carboxamide] has an IC50 of 0.345 µM.
For `Cn1nc(C(=O)OCc2ccc(C#N)cc2)c2c1C(=O)N(CC1(S(=O)(=O)C3CC3)CC1)CC2` [Example 24, 4-cyanobenzyl 6-((1-(cyclopropylsulfonyl)cyclopropyl)methyl)-1-methyl-7-oxo-4,5,6,7-tetrahydro-1H-pyrazolo[3,4-c]pyridine-3-carboxylate], the IC50 was 0.467 µM.
For `Cn1nc(C(=O)COc2ccc(C#N)cc2)c2c1C(=O)N(CC1(S(=O)(=O)C3CC3)CC1)CC2` [Example 25, 4-(2-(6-((1-(cyclopropylsulfonyl)cyclopropyl)methyl)-1-methyl-7-oxo-4,5,6,7-tetrahydro-1H-pyrazolo[3,4-c]pyridin-3-yl)-2-oxoethoxy)benzonitrile], the IC50 was 0.053 µM.
`Cn1nc(-c2nnc(Cc3ccc(C#N)cc3)o2)c2c1C(=O)N(CC1(S(=O)(=O)C3CC3)CC1)CC2` [Example 26, 4-((5-(6-((1-(Cyclopropylsulfonyl)cyclopropyl)methyl)-1-methyl-7-oxo-4,5,6,7-tetrahydro-1H-pyrazolo[3,4-c]pyridin-3-yl)-1,3,4-oxadiazol-2-yl)methyl)benzonitrile] gave an IC50 of 3.96 µM.
Work on `Cn1nc(-c2noc(Cc3ccc(C#N)cc3)n2)c2c1C(=O)N(CC1(S(=O)(=O)C3CC3)CC1)CC2` [Example 28, 4-((3-(6-((1-(Cyclopropylsulfonyl)cyclopropyl)methyl)-1-methyl-7-oxo-4,5,6,7-tetrahydro-1H-pyrazolo[3,4-c]pyridin-3-yl)-1,2,4-oxadiazol-5-yl)methyl)benzonitrile] yielded an IC50 of 0.029 µM.
`Cn1nc(-c2nnn(Cc3ccc(C#N)cc3)n2)c2c1C(=O)N(CC1(S(=O)(=O)C3CC3)CC1)CC2` [Example 29, 4-((5-(6-((1-(Cyclopropylsulfonyl)cyclopropyl)methyl)-1-methyl-7-oxo-4,5,6,7-tetrahydro-1H-pyrazolo[3,4-c]pyridin-3-yl)-2H-tetrazol-2-yl)methyl)benzonitrile] showed an IC50 of 0.086 µM.
With `Cn1nc(-c2nnnn2Cc2ccc(C#N)cc2)c2c1C(=O)N(CC1(S(=O)(=O)C3CC3)CC1)CC2` [Example 30, 4-((5-(6-((1-(cyclopropylsulfonyl)cyclopropyl)methyl)-1-methyl-7-oxo-4,5,6,7-tetrahydro-1H-pyrazolo[3,4-c]pyridin-3-yl)-1H-tetrazol-1-yl)methyl)benzonitrile] the IC50 was 6.24 µM.
`Cn1nc(C2=NOC(c3ccc(C#N)cc3)C2)c2c1C(=O)N(CC1(S(=O)(=O)C3CC3)CC1)CC2` (centres unmarked) [Example 31, 4-(3-(6-((1-(Cyclopropylsulfonyl)cyclopropyl)methyl)-1-methyl-7-oxo-4,5,6,7-tetrahydro-1H-pyrazolo[3,4-c]pyridin-3-yl)-4,5-dihydroisoxazol-5-yl)benzonitrile] gave an IC50 of 0.293 µM.
Compound `Cn1nc(-c2cc(Cc3ccc(C#N)cc3)on2)c2c1C(=O)N(CC1(S(=O)(=O)C3CC3)CC1)CC2` [Example 34, 4-((3-(6-((1-(Cyclopropylsulfonyl)cyclopropyl)methyl)-1-methyl-7-oxo-4,5,6,7-tetrahydro-1H-pyrazolo[3,4-c]pyridin-3-yl)isoxazol-5-yl)methyl)benzonitrile] has an IC50 of 0.01 µM.
For `Cn1nc(-c2cn(Cc3ccc(C#N)cc3)nn2)c2c1C(=O)N(CC1(S(=O)(=O)C3CC3)CC1)CC2` [Example 35, 4-((4-(6-((1-(Cyclopropylsulfonyl)cyclopropyl)methyl)-1-methyl-7-oxo-4,5,6,7-tetrahydro-1H-pyrazolo[3,4-c]pyridin-3-yl)-1H-1,2,3-triazol-1-yl)methyl)benzonitrile], the IC50 was 0.141 µM.
With `Cn1nc(C(=O)NCc2ccc(Cl)cc2)c2c1C(=O)N(CC1(S(=O)(=O)C(F)F)CC1)CC2` [Example 39, N-(4-Chlorobenzyl)-6-((1-((difluoromethyl)sulfonyl)cyclopropyl)methyl)-1-methyl-7-oxo-4,5,6,7-tetrahydro-1H-pyrazolo[3,4-c]pyridine-3-carboxamide] the IC50 was 0.625 µM.
With `N#Cc1ccc(CNC(=O)c2nn(C3CC3)c3c2CCN(CC2(S(=O)(=O)C4CC4)CC2)C3=O)cc1` [Example 43, N-(4-Cyanobenzyl)-1-cyclopropyl-6-((1-(cyclopropylsulfonyl)cyclopropyl)methyl)-7-oxo-4,5,6,7-tetrahydro-1H-pyrazolo[3,4-c]pyridine-3-carboxamide] the IC50 was 0.101 µM.
In the case of `O=C(NCc1ccc(Cl)cc1)c1n[nH]c2c1CCN(CC1(S(=O)(=O)C3CC3)CC1)C2=O` [Example 44, N-(4-Chlorobenzyl)-6-((1-(cyclopropylsulfonyl)cyclopropyl)methyl)-7-oxo-4,5,6,7-tetrahydro-1H-pyrazolo[3,4-c]pyridine-3-carboxamide], the IC50 is reported as 0.137 µM.
`CS(=O)(=O)C1(CN2CCc3c(nn4c3C(=O)N(Cc3ccc(C#N)cc3)CC4)C2=O)CC1` [Example 46, 4-((8-((1-(Methylsulfonyl)cyclopropyl)methyl)-1,7-dioxo-3,4,7,8,9,10-hexahydropyrido[3′,4′: 3,4]pyrazolo[1,5-a]pyrazin-2 (1H)-yl)methyl)benzonitrile] showed an IC50 of 1.78 µM.
`N#Cc1ccc(CNC(=O)c2nn(CC3(CO)CC3)c3c2CCN(CC2(S(=O)(=O)C4CC4)CC2)C3=O)cc1` [Example 47, N-(4-Cyanobenzyl)-6-((1-(cyclopropylsulfonyl)cyclopropyl)methyl)-1-((1-(hydroxymethyl)cyclopropyl)methyl)-7-oxo-4,5,6,7-tetrahydro-1H-pyrazolo[3,4-c]pyridine-3-carboxamide] gave an IC50 of 0.059 µM.
Compound `CS(=O)(=O)C1(CN2CCc3c(C(=O)NCc4ccc(C#N)cc4)nn(CC4(CO)CC4)c3C2=O)CC1` [Example 48, N-(4-Cyanobenzyl)-1-((1-(hydroxymethyl)cyclopropyl)methyl)-6-((1-(methylsulfonyl)cyclopropyl)methyl)-7-oxo-4,5,6,7-tetrahydro-1H-pyrazolo[3,4-c]pyridine-3-carboxamide] has an IC50 of 0.801 µM.
Compound `CC(C)(CO)S(=O)(=O)C1(CN2CCc3c(C(=O)NCc4ccc(C#N)cc4)n[nH]c3C2=O)CC1` [Example 49, N-(4-cyanobenzyl)-6-((1-((1-hydroxy-2-methylpropan-2-yl)sulfonyl)cyclopropyl)methyl)-7-oxo-4,5,6,7-tetrahydro-1H-pyrazolo[3,4-c]pyridine-3-carboxamide] has an IC50 of 0.037 µM.
`Cn1nc(C(=O)NCc2ccc(Cl)cc2)c2c1C(=O)N(CC1(S(=O)(=O)C(C)(C)CO)CC1)CC2` [Example 50, N-(4-Chlorobenzyl)-6-((1-((1-hydroxy-2-methylpropan-2-yl)sulfonyl)cyclopropyl)methyl)-1-methyl-7-oxo-4,5,6,7-tetrahydro-1H-pyrazolo[3,4-c]pyridine-3-carboxamide] showed an IC50 of 0.016 µM.
`Cn1nc(C(=O)NCc2ccc(Cl)nc2)c2c1C(=O)N(CC1(S(=O)(=O)C(C)(C)CO)CC1)CC2` [Example 51, N-((6-Chloropyridin-3-yl)methyl)-6-((1-((1-hydroxy-2-methylpropan-2-yl)sulfonyl)cyclopropyl)methyl)-1-methyl-7-oxo-4,5,6,7-tetrahydro-1H-pyrazolo[3,4-c]pyridine-3-carboxamide] showed an IC50 of 0.089 µM.
`Cn1nc(C(=O)NCc2ccc(C#N)cc2)c2c1C(=O)N(CC1(S(=O)(=O)C(C)(C)CO)CC1)CC2` [Example 52, N-(4-Cyanobenzyl)-6-((1-((1-hydroxy-2-methylpropan-2-yl)sulfonyl)cyclopropyl)methyl)-1-methyl-7-oxo-4,5,6,7-tetrahydro-1H-pyrazolo[3,4-c]pyridine-3-carboxamide] was tested, and the IC50 was 0.019 µM.
In the case of `Cn1nc(C(=O)NCc2ccc(F)cc2)c2c1C(=O)N(CC1(S(=O)(=O)C(C)(C)CO)CC1)CC2` [Example 53, N-(4-Fluorobenzyl)-6-((1-((1-hydroxy-2-methylpropan-2-yl)sulfonyl)cyclopropyl)methyl)-1-methyl-7-oxo-4,5,6,7-tetrahydro-1H-pyrazolo[3,4-c]pyridine-3-carboxamide], the IC50 is reported as 0.07 µM.
Work on `C[C@H](NC(=O)c1nn(C)c2c1CCN(CC1(S(=O)(=O)C(C)(C)CO)CC1)C2=O)c1ccc(C#N)cc1` [Example 54, (S)-N-(1-(4-Cyanophenyl)ethyl)-6-((1-((1-hydroxy-2-methylpropan-2-yl)sulfonyl)cyclopropyl)methyl)-1-methyl-7-oxo-4,5,6,7-tetrahydro-1H-pyrazolo[3,4-c]pyridine-3-carboxamide] yielded an IC50 of 0.103 µM.
`C[C@@H](NC(=O)c1nn(C)c2c1CCN(CC1(S(=O)(=O)C(C)(C)CO)CC1)C2=O)c1ccc(C#N)cc1` [Example 55, (R)-N-(1-(4-Cyanophenyl)ethyl)-6-((1-((1-hydroxy-2-methylpropan-2-yl)sulfonyl)cyclopropyl)methyl)-1-methyl-7-oxo-4,5,6,7-tetrahydro-1H-pyrazolo[3,4-c]pyridine-3-carboxamide] was tested, and the IC50 was greater than 25 µM.
In the case of `Cn1nc(C(=O)NCc2ccc(C#N)cc2)c2c1C(=O)N(CC1(S(=O)(=O)C(C)(C)COC(F)F)CC1)CC2` [Example 58, N-(4-Cyanobenzyl)-6-((1-((1-(difluoromethoxy)-2-methylpropan-2-yl)sulfonyl)cyclopropyl)methyl)-1-methyl-7-oxo-4,5,6,7-tetrahydro-1H-pyrazolo[3,4-c]pyridine-3-carboxamide], the IC50 is reported as 0.024 µM.
In the case of `Cn1nc(C(=O)NCc2ccc(C#N)cc2)c2c1C(=O)N(CC1(S(=O)(=O)C(C)(C)C#N)CC1)CC2` [Example 59, N-(4-Cyanobenzyl)-6-((1-((2-cyanopropan-2-yl)sulfonyl)cyclopropyl)methyl)-1-methyl-7-oxo-4,5,6,7-tetrahydro-1H-pyrazolo[3,4-c]pyridine-3-carboxamide], the IC50 is reported as 0.023 µM.
`Cn1nc(C(=O)NCc2ccc(C#N)cc2)c2c1C(=O)N(CC1(S(=O)(=O)C(C)(C)CN3CC(F)C3)CC1)CC2` [Example 60, N-(4-Cyanobenzyl)-6-((1-((1-(3-fluoroazetidin-1-yl)-2-methylpropan-2-yl)sulfonyl)cyclopropyl)methyl)-1-methyl-7-oxo-4,5,6,7-tetrahydro-1H-pyrazolo[3,4-c]pyridine-3-carboxamide] was tested, and the IC50 was 0.045 µM.
